≈ marks a conversion by molar mass, not a printed value. Starred links: 1 amine or outer side, 2 acyl side, 3 side chain; linkers in the order of their positions; H or OH if unused. Positions of bridges follow the written chain, without caps; N, C: chain ends. Non-standard residues stand in square brackets, D forms with d. Residues, ends and D or L forms follow the SMILES beside them. *: point of attachment. X1 = NC1=N[C@@H]([C@H](N[*:1])C(=O)[*:2])C[C@H](O)N1; ΔAla(Z-3-ureido) = NC(=O)N/C=C(\N)C(=O)O; β3hOrn = NCCC[C@H](N)CC(=O)*; Dap = NC[C@H](N)C(=O)O
Legend:
M. smegmatis [1] = details: tlyA mutant P2U; cited from earlier work
M. smegmatis [2] = assay: microbe, parasite or virus in culture; format: cell-based, Mycobacterium smegmatis
S. avermitilis MA4630 = format: cell-based, Streptomyces avermitilis
[3] = system: 70S ribosome (30S, 50S and 70S particles); format: binding, Mycobacterium smegmatis
[4] = system: S. coelicolor M145 and derived mutants; format: cell-based, Streptomyces coelicolor
E. coli DH1 = assay: microbe, parasite or virus in culture; format: cell-based; details: Escherichia coli, DH1, read-out: Minimal inhibitory concentrations
E. coli strain AS19 = assay: Agar plate MIC on hyperpermeable E. coli AS19; details: Escherichia coli
Experimental: Escherichia coli strain DH1 was used for cloning and expressing recombinant tlyA, and was grown by standard techniques (Sambrook et al., 1989). The hyperpermeable E. coli strain AS19 (Sekiguchi and Iida, 1967) was additionally used to express tlyA.
Overnight cultures of E. coli DH1 and AS19 strains were diluted 10^5-fold and plated onto agar containing viomycin (US Pharmacopeia), capreomycin, kanamycin or rifampicin (Sigma) with concentrations increasing in two-fold steps. The agar plates were incubated at 37° C.; and after 22 h, MICs were scored as the lowest concentration at which no growth was observed.

## NCC[C@H](O)C(=O)N[C@@H]1C[C@H](N)[C@@H](O[C@H]2O[C@H](CN)[C@@H](O)[C@H](O)[C@H]2O)[C@H](O)[C@H]1O[C@H]1O[C@H](CO)[C@@H](O)[C@H](N)[C@H]1O [amikacin]
M. smegmatis [1]
  susceptibility: susceptible

## capreomycin
M. smegmatis [2]
  MIC, minimal inhibitory concentration of capreomycin: <10 µg/mL
S. avermitilis MA4630
  MIC value: 1 to 5 µg/mL
[3]
  binding interactions with the ribosome (footprints): occur only when the ribosomal subunits are associated into 70S couples
[4]
  MIC value: 1 to 5 µg/mL
  capreomycin concentration above which the strain is unable to grow: 5 µg/mL
  capreomycin concentration at which the strain grew very well: 100 µg/mL
  capreomycin concentration at which the strain still grows: 100 µg/mL
  capreomycin sensitivity after complementation: regained capreomycin sensitivity
  resistance relative to parent M145: more than 100 fold

## NCCC[C@H](N)CC(=O)N[C@H]1CNC(=O)[C@H]([C@H]2C[C@H](O)NC(N)=N2)NC(=O)/C(=C/NC(N)=O)NC(=O)[C@H](CO)NC(=O)[C@H](CO)NC1=O [viomycin] (β3hOrn-[Dap]SS[ΔAla(Z-3-ureido)][X1]; lactam 1-C)
M. smegmatis [2]; Mycolicibacterium smegmatis
  MIC: 20 to 40 µg/mL (≈ 29.2 to 58.3 µM)
[3]
  binding interactions with the ribosome (footprints): occur only when the ribosomal subunits are associated into 70S couples

## CO[C@H]1/C=C/O[C@@]2(C)Oc3c(C)c(O)c4c(O)c(c(/C=N/N5CCN(C)CC5)c(O)c4c3C2=O)NC(=O)/C(C)=C\C=C\[C@H](C)[C@H](O)[C@@H](C)[C@@H](O)[C@@H](C)[C@H](OC(C)=O)[C@@H]1C [rifampicin]
E. coli DH1
  MIC: 4 µg/mL (≈ 4.86 µM)
E. coli strain AS19
  MIC: 0.1 µg/mL (≈ 0.122 µM)

## NC[C@H]1O[C@H](O[C@H]2[C@H](O)[C@@H](O[C@H]3O[C@H](CO)[C@@H](O)[C@H](N)[C@H]3O)[C@H](N)C[C@@H]2N)[C@H](O)[C@@H](O)[C@@H]1O [kanamycin]
E. coli DH1
  MIC: 4 µg/mL (≈ 8.26 µM)

From patent US20100292137A1, “Antibiotics and Methods For Producing Them” (priority 2006, published 2010)
